Columns and labels:
primary astrocytes [1] = test: High throughput screening (HTS) for lactate secretion: acidification of extracellular medium (SNARF5); assay type: cell-based, mouse; parameters: key to Score / HTS Score (SNARF5) / Score_SNARF: fraction of plate positive-control activity (1 = 100%); conditions: Appendix I; for Score_SNARF: primary screening confirmation (SNARF5)
Method: Primary cultures of cerebrocortical astrocytes were obtained from 1-2-day-old OF1 mouse pups (Charles River Laboratories). Briefly, cortices were isolated and minced in small pieces under a dissecting microscope. The cells were incubated for 30 min at 37° C. in a solution containing 20 U/ml of papain enzyme (Worthington Biochemical), L-cysteine 1 mM (Sigma), and 10 kU/ml DNase I (Worthington Biochemical) for an enzymatic dissociation. Papain activity was stopped by the addition of fetal calf serum (FCS) to the solution, and a single-cell suspension was then obtained by mechanical dissociation, which consisted in cells trituration in a DMEM (D7777, Sigma-Aldrich) medium (supplemented with 44 mm NaHCO3, and 10 ml/L antibiotic/antimycotic solution) containing 10% FCS. The cells were seeded at an average density of 6×10^4 cells/cm^2 in poly-D-lysine-coated 96, 12 or 6-well culture plates, depending on their use, and incubated at 37° C. in a humidified atmosphere containing 5% CO2/95% air. Culture medium was renewed twice per week. Cells were stimulated and harvested between DIV14 and DIV17, when confluence and cell growth were optimal.
Secretion of lactate in a high-throughput screening (HTS) fashion was measured indirectly through the acidification of extracellular medium. To this end, primary astrocytes grown in 96-well plates for 17 days were stimulated with the compounds as listed herein.
After washing the cells twice with stimulation medium (DMEM (D5030, Sigma), 3 mM NaHCO3 and 5 mM Glucose) at 37° C., cells were stimulated with the compounds at a final concentration of 10 uM (1% DMSO final) in 50 ul per well of stimulation medium supplemented with 10 uM of the extracellular pH sensor SNARF-5F %-(AND-6)-CAR (Life Technologies Corporation). Each compound was tested in two different plates for duplicates.
After 90 min stimulation, fluorescence was read at exc. (excitation) 480 nm/emm. (emission) 580 nm and at exc 480 nm/emm. 630 nm. The ratio of fluorescence between 630 nm and 580 emission values, which represents extracellular pH, was calculated.
In each plate, 8 wells were used for negative controls (DMSO) and 8 wells were used for positive controls (CCCP 2 uM in DMSO). Z prime values were calculated for each of the plates tested and values<0 were discarded.
The average and SD of compounds' values tested in duplicates were calculated, and compound was noted as HIT when the difference between compound's average and negative control's average was greater than three times the sum of compound's SD and negative controls' SD. Only scores greater than 40% were considered as lead Hits for the CDC54K library; for the remaining libraries, all hits were considered. Scores are calculated as the % of activity compared to the positive control in each plate (which is 100%).
Primary screening hits were cherry picked on new plates and confirmed for SNARF5 effect, after having discarded those compounds that are fluorescent (exc. 480 nm/emm. 580 nm or 630 nm) before stimulation. Extracellular medium was next analyzed for extracellular lactate quantification for secondary screening.
Identification of lactate-enhancing drugs with high throughput screening (HTS) experiments on astrocytes primary cultures using extracellular pH dye (SNARF5F 5-(and-6)-carboxylic acid) for 90 min. The procedure is described in Material and Methods (2. Cell culture, 2.1. HTS for lactate secretion and 2.2. Extracellular lactate quantification).
The procedure was performed as follows: • Primary screening: acidification of the extracellular medium • Primary screening confirmation: acidification of the extracellular medium, removal of compounds with fluorescent activity at exc. 480 nm/emm. 580 nm or 630 n. • Secondary screening: dosage of extracellular lactate

primary astrocytes [2] = test: Extracellular lactate quantification; assay type: cell-based, mouse; conditions: Appendix I, secondary screening: extracellular lactate
Method: Secretion of L-lactate was determined in the extracellular medium of 96-well plated astrocytes after 90 min stimulation (at 37° C., in 5% CO2/95% air conditions) with the drug of interest. The stimulation medium was composed of D5030 medium (completed with D-glucose 5 mM and 44 mM sodium bicarbonate) for 90 min in concentrations ranging from 0 to 100 μM.
Briefly, 200 μl of a Glycine (Sigma)-Semicarbazide (Acros) 0.2M pH 10 buffer containing 3 mM NAD (Roche) and LDH 14 U/ml (Roche) was added to each well of a 96-well plate containing 30 μl aliquots complemented with 20 μl fresh complete D5030 medium. Samples were incubated at 37° C. for 1 h. After samples cooled down at room temperature, the fluorescence intensity (340 nm excitation/450 nm emission) that represents the amount of NADH produced was measured, and lactate concentration values were determined from a standard curve of L-lactate.
Statistical analysis consisted in ANOVA followed by Fisher LSD post-hoc test for pair-wise comparisons.
Levels of lactate secreted by astrocytes were measured in the extracellular medium at 90 min after stimulation with hits (molecules) from the CDC54K library.

Structure (SMILES)	Score_SNARF (primary astrocytes [1])	Score_LACTATE (primary astrocytes [2])	Score (primary astrocytes [1]; CDC54K primary screening, 10 uM, 90 min, relative to CCCP 2 uM)
Cc1ccc(C)c([N+]2=C3CCCCN3C(O)(c3ccc(F)cc3)C2)c1 (stereo not drawn) [K404-0697]	0.5123	0.6526	–
Fc1ccc(Nc2nc(N3CCOCC3)c3ccccc3n2)cc1 [T0508-5193]	0.3052	0	–
Cc1oc2ncnc(N3CCCC(C(=O)NCc4ccccn4)C3)c2c1C (stereo not drawn) [F228-0350]	1.011	1.023	–
CC(=O)c1ccc(NS(=O)(=O)c2cc(-c3noc(C4CCCC4)n3)cs2)cc1 [L287-1577]	1.059	1.215	–
CCOc1ccc(C2(O)C[N+](c3cc(OC)ccc3OC)=C3CCCCCN32)cc1 (stereo not drawn) [K404-0860]	0.6137	0.4766	–
O=S(=O)(Nc1ccc(F)c(Cl)c1)c1ccc2ccccc2c1 [T5231424]	0.3707	0.5258	–
Cc1ccc(CNc2ncnc3c2CCC3)o1 [T636-0054]	0	0	–
Cn1nccc1-c1csc(S(=O)(=O)Nc2ccc(F)cc2)c1 [L924-0760]	0.7695	0.7898	–
COc1ccc(C2(O)C[N+](c3ccccc3C)=C3CCCCCN32)cc1OC (stereo not drawn) [K404-0906]	0	0	–
Cn1nccc1C(=O)N1CCC(Nc2ncnc3c2CCC3)C1 (stereo not drawn) [T636-2425]	0.2725	0.3027	–
COc1ccccc1[N+]1=C2CCCCCN2C(O)(c2cccc([N+](=O)[O-])c2)C1 (stereo not drawn) [K404-0842]	0.2022	0	0.169
COc1ccccc1S(=O)(=O)Nc1ccc2nc(C)sc2c1 [T5246417]	0.2455	0	–
c1ccc2c(c1)CN(c1ncnc3sccc13)CCN2 [T6768300]	0.3742	0	–
O=S(=O)(NC1CCN(c2ncnc3c2CCC3)C1)c1ccccc1 (stereo not drawn) [T636-1250]	0.8587	0.8982	–
CC(=O)N1CCCc2cc(S(=O)(=O)NCc3ccccc3)ccc21 [G855-0210]	0.3123	0	–
CNC(=O)C1CCCN(c2ncnc3oc(C)c(C)c23)C1 (stereo not drawn) [F228-0541]	0.3609	0	–
c1csc(C(Nc2ncnc3sccc23)C2CC2)c1 (stereo not drawn) [T5713637]	1.184	1.287	–
COc1ccccc1[N+]1=C2CCCCN2C(O)(c2ccc(F)cc2)C1.[Br-] (stereo not drawn) [F0524-0338]	0.634	1.585	–
O=C(NC1CC1)c1cccc(NS(=O)(=O)c2ccc(N3CCCC3=O)cc2)c1 [T5618591]	0.5353	0.3601	–
O=C(NCc1ccccc1)NC1CCN(c2ncnc3c2CCC3)C1 (stereo not drawn) [T636-1210]	0.4305	0.3226	–

Structure (SMILES)	Score_SNARF (primary astrocytes [1])	Score_LACTATE (primary astrocytes [2])	Score (primary astrocytes [1]; CDC54K primary screening, 10 uM, 90 min, relative to CCCP 2 uM)
O=S(=O)(NC1CCCC1)c1cc(-c2noc(C3CCC3)n2)cs1 [L287-1221]	0.5995	0.6602	–
FC(F)(F)c1cccc(CNc2ncnc3sccc23)c1 [T5346988]	0.9569	0.9327	–
Cc1cccc([N+]2=C3CCCCN3C(O)(c3ccc(Cl)cc3)C2)c1 (stereo not drawn) [K404-0800]	0.7386	0.8385	–
Cc1ccsc1C(=O)NC1CCN(c2ncnc3c2CCC3)C1 (stereo not drawn) [T636-1114]	0.6238	0.5477	–
CCc1ccc(C2(O)C[N+](c3ccccc3OC)=C3CCCCN32)cc1 (stereo not drawn) [K404-0672]	1.014	1.356	–
COc1ccccc1[N+]1=C2CCCCCN2C(O)(c2ccccc2)C1 (stereo not drawn) [K404-0838]	0.8328	1.051	–
Cc1cccc([N+]2=C3SCCCN3C(O)(c3ccc(Cl)cc3)C2)c1.[Br-] (stereo not drawn) [F0522-0533]	0.4705	0	–
CC1c2ccsc2CCN1c1ncnc2sccc12 (stereo not drawn) [T5630309]	0.4816	0.7	–
O=C(c1noc2ccc(S(=O)(=O)Nc3cccc(F)c3)cc12)N1CCCC1 [L995-0058]	0.4197	0.424	–
Cc1cccc([N+]2=C3CCCCN3C(O)(c3ccc(F)cc3)C2)c1C (stereo not drawn) [K404-0685]	0.6562	0.6821	–
O=C(Cc1cccc(F)c1)N1CCC(Nc2ncnc3c2CCC3)C1 (stereo not drawn) [T636-2360]	0	0.413	–
O=C(NCc1cccc(F)c1)NC1CCN(c2ncnc3c2CCC3)C1 (stereo not drawn) [T636-1243]	0.4179	0	–
CCNC(=O)C1CCCN(c2ncnc3oc(C)c(C)c23)C1 (stereo not drawn) [F228-0534]	0.5203	0.3387	–
CCOc1ccc(C2(O)C[N+](c3ccccc3C)=C3CCCCN32)cc1.[Br-] (stereo not drawn) [F0524-0511]	0.5555	0	–
O=S(=O)(Nc1ccc(O)c(Cl)c1)c1ccc2ccccc2c1 [T0517-8939]	0.6382	0	–
Cc1ccc(CN2CCN(c3ncnc4c3CCC4)CC2)o1 [T636-1937]	0.473	0.8045	–
Cc1nc(-c2cccc(NS(=O)(=O)c3ccc(N4CCCC4=O)cc3)c2)cs1 [T5599698]	0.8856	0.7496	–
CC(C)OCCCNc1ncnc2c1CCC2 [T636-0027]	0	0	–
Cc1nc(N2CCCC(C(=O)NCc3cccnc3)C2)c2c(C)c(C)oc2n1 (stereo not drawn) [F228-0856]	0	0	–
O=C(c1ccc(Cl)s1)N1CCC(Nc2ncnc3c2CCC3)C1 (stereo not drawn) [T636-2391]	0.8743	0.8854	–

From patent US12310967B2, “Compositions and methods of treatment for neurological disorders comprising motor neuron diseases” (Gliapharm SA, priority 2017, dated 2025)
